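Following 48 hours of exposure in 96-well plates, responses at five concentrations were used to interpolate endpoints linearly. GI50 is the concentration that inhibits growth by half. TGI: total growth inhibition.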
Legend:
Assay in all cases: inhibition of tumour cell growth, NCI panel, 48 h
SK-OV-3 ovarian = test system: SK-OV-3 ovarian
UACC-62 melanoma = test system: UACC-62 melanoma
NCI-H226 lung = test system: NCI-H226 lung
OVCAR-4 ovarian = test system: OVCAR-4 ovarian
IGROV1 ovarian = test system: IGROV1 ovarian
K-562 leukemia = test system: K-562 leukemia
HL-60(TB) leukemia = test system: HL-60(TB) leukemia
CAKI-1 renal = test system: CAKI-1 renal
T-47D breast = test system: T-47D breast
A549 NSCLC = test system: A549 NSCLC
HCC-2998 colon = test system: HCC-2998 colon
RXF 393 renal = test system: RXF 393 renal
NCI-H460 lung = test system: NCI-H460 lung
HOP-62 NSCLC = test system: HOP-62 NSCLC
SK-MEL-5 melanoma = test system: SK-MEL-5 melanoma
A498 renal = test system: A498 renal
OVCAR-3 ovarian = test system: OVCAR-3 ovarian
COLO 205 colon = test system: COLO 205 colon
SK-MEL-2 melanoma = test system: SK-MEL-2 melanoma
MOLT-4 leukemia = test system: MOLT-4 leukemia
SF-295 CNS = test system: SF-295 CNS
SNB-75 CNS = test system: SNB-75 CNS
NCI-H522 lung = test system: NCI-H522 lung
SF-539 CNS = test system: SF-539 CNS
DU-145 prostate = test system: DU-145 prostate
SK-MEL-28 melanoma = test system: SK-MEL-28 melanoma
OVCAR-5 ovarian = test system: OVCAR-5 ovarian
MCF7 breast = test system: MCF7 breast
HCT-15 colon = test system: HCT-15 colon
TK-10 renal = test system: TK-10 renal
U251 CNS = test system: U251 CNS
NCI-H23 lung = test system: NCI-H23 lung
SR leukemia = test system: SR leukemia
M14 melanoma = test system: M14 melanoma
OVCAR-8 ovarian = test system: OVCAR-8 ovarian
SN12C renal = test system: SN12C renal
PC-3 prostate = test system: PC-3 prostate
EKVX NSCLC = test system: EKVX NSCLC
MALME-3M melanoma = test system: MALME-3M melanoma
LOX IMVI melanoma = test system: LOX IMVI melanoma
MDA-MB-468 breast = test system: MDA-MB-468 breast
HT29 colon = test system: HT29 colon
KM12 colon = test system: KM12 colon
ACHN renal = test system: ACHN renal
SF-268 CNS = test system: SF-268 CNS
UO-31 renal = test system: UO-31 renal
MDA-MB-231 breast = test system: MDA-MB-231 breast
HOP-92 NSCLC = test system: HOP-92 NSCLC
MDA-MB-435 = test system: MDA-MB-435
UACC-257 melanoma = test system: UACC-257 melanoma
SNB-19 CNS = test system: SNB-19 CNS
CCRF-CEM leukemia = test system: CCRF-CEM leukemia
786-0 renal = test system: 786-0 renal
RPMI-8226 leukemia = test system: RPMI-8226 leukemia
HS 578T breast = test system: HS 578T breast
BT-549 breast = test system: BT-549 breast

Question: What does the source list for `C=C1CCC2C3(C)COC(c4ccccc4F)OC3CCC2(C)C1C/C=C1/C(=O)OCC1O` (configuration not stated)?
Answer: GI50 (SK-OV-3 ovarian): 18.6 µM; TGI (SK-OV-3 ovarian): 35.4 µM; GI50 (UACC-62 melanoma): 3.17 µM; TGI (UACC-62 melanoma): 12.1 µM; GI50 (NCI-H226 lung): 1.67 µM; TGI (NCI-H226 lung): 3.3 µM; GI50 (OVCAR-4 ovarian): 2.45 µM; TGI (OVCAR-4 ovarian): 7.65 µM; GI50 (IGROV1 ovarian): 5.66 µM; TGI (IGROV1 ovarian): 19.7 µM; GI50 (K-562 leukemia): 3.04 µM; TGI (K-562 leukemia): > 100 µM; GI50 (HL-60(TB) leukemia): 1.65 µM; TGI (HL-60(TB) leukemia): 5.48 µM; GI50 (CAKI-1 renal): 3.84 µM; TGI (CAKI-1 renal): 13.3 µM; GI50 (T-47D breast): 3.76 µM; TGI (T-47D breast): 16.9 µM; GI50 (A549 NSCLC): 4.4 µM; TGI (A549 NSCLC): 94 µM; GI50 (HCC-2998 colon): 5.12 µM; TGI (HCC-2998 colon): 17.8 µM; GI50 (RXF 393 renal): 3 µM; TGI (RXF 393 renal): 12.2 µM; GI50 (NCI-H460 lung): 3.36 µM; TGI (NCI-H460 lung): > 100 µM; GI50 (HOP-62 NSCLC): 15.8 µM; TGI (HOP-62 NSCLC): 35.1 µM; GI50 (SK-MEL-5 melanoma): 5.67 µM; TGI (SK-MEL-5 melanoma): 18.2 µM; GI50 (A498 renal): 20.1 µM; TGI (A498 renal): 37.3 µM; GI50 (OVCAR-3 ovarian): 1.8 µM; TGI (OVCAR-3 ovarian): 3.7 µM; GI50 (COLO 205 colon): 2.96 µM; TGI (COLO 205 colon): 8.38 µM; GI50 (SK-MEL-2 melanoma): 2.67 µM; TGI (SK-MEL-2 melanoma): 7.79 µM; GI50 (MOLT-4 leukemia): 3.31 µM; TGI (MOLT-4 leukemia): 17.2 µM; GI50 (SF-295 CNS): 2.13 µM; TGI (SF-295 CNS): 5.24 µM; GI50 (SNB-75 CNS): 2.82 µM; TGI (SNB-75 CNS): 12.8 µM; GI50 (NCI-H522 lung): 1.57 µM; TGI (NCI-H522 lung): 3.12 µM; GI50 (SF-539 CNS): 1.94 µM; TGI (SF-539 CNS): 3.52 µM; GI50 (DU-145 prostate): 4.09 µM; TGI (DU-145 prostate): 15.1 µM; GI50 (SK-MEL-28 melanoma): 2.92 µM; TGI (SK-MEL-28 melanoma): 7.63 µM; GI50 (OVCAR-5 ovarian): 2.47 µM; TGI (OVCAR-5 ovarian): 5.78 µM; GI50 (MCF7 breast): 1.83 µM; TGI (MCF7 breast): 5.45 µM; GI50 (HCT-15 colon): 1.85 µM; TGI (HCT-15 colon): 4.52 µM; GI50 (TK-10 renal): 8.18 µM; TGI (TK-10 renal): 22.2 µM; GI50 (U251 CNS): 1.96 µM; TGI (U251 CNS): 3.97 µM; GI50 (NCI-H23 lung): 10.8 µM; TGI (NCI-H23 lung): 26 µM; GI50 (SR leukemia): 2.5 µM; TGI (SR leukemia): 19.9 µM; GI50 (M14 melanoma): 4.24 µM; TGI (M14 melanoma): 19.2 µM; GI50 (OVCAR-8 ovarian): 1.98 µM; TGI (OVCAR-8 ovarian): 5.53 µM; GI50 (SN12C renal): 1.99 µM; TGI (SN12C renal): 4.49 µM; GI50 (PC-3 prostate): 3.45 µM; TGI (PC-3 prostate): 14.6 µM; GI50 (EKVX NSCLC): 15.4 µM; TGI (EKVX NSCLC): 30.3 µM; GI50 (MALME-3M melanoma): 7.35 µM; TGI (MALME-3M melanoma): 21.8 µM; GI50 (LOX IMVI melanoma): 1.57 µM; TGI (LOX IMVI melanoma): 2.92 µM; GI50 (MDA-MB-468 breast): 1.62 µM; TGI (MDA-MB-468 breast): 3.63 µM; GI50 (HT29 colon): 1.9 µM; TGI (HT29 colon): 3.85 µM; GI50 (KM12 colon): 2.99 µM; TGI (KM12 colon): 10.3 µM; GI50 (ACHN renal): 1.85 µM; TGI (ACHN renal): 3.34 µM; GI50 (SF-268 CNS): 3.85 µM; TGI (SF-268 CNS): 16.4 µM; GI50 (UO-31 renal): 1.97 µM; TGI (UO-31 renal): 5.54 µM; GI50 (MDA-MB-231 breast): 2.41 µM; TGI (MDA-MB-231 breast): 5.41 µM; GI50 (HOP-92 NSCLC): 3.65 µM; TGI (HOP-92 NSCLC): 14.6 µM; GI50 (MDA-MB-435): 2.25 µM; TGI (MDA-MB-435): 5.79 µM; GI50 (UACC-257 melanoma): 2.36 µM; TGI (UACC-257 melanoma): 13.2 µM; GI50 (SNB-19 CNS): 11.5 µM; TGI (SNB-19 CNS): 26.8 µM; GI50 (CCRF-CEM leukemia): 1.81 µM; TGI (CCRF-CEM leukemia): 6.53 µM; GI50 (786-0 renal): 2.02 µM; TGI (786-0 renal): 3.69 µM; GI50 (RPMI-8226 leukemia): 2.6 µM; TGI (RPMI-8226 leukemia): 7.35 µM; GI50 (HS 578T breast): 4.4 µM; TGI (HS 578T breast): 47.9 µM; GI50 (BT-549 breast): 2.6 µM; TGI (BT-549 breast): 5.76 µM

— PubChem BioAssay (NCI)
